Target: T1, hCGRPR (Homo sapiens, UniProt O60894+Q16602)
T1 construct: host or cells: CHO
Experiment: Radioligand binding assay, CHO cells, hCGRPR
Conditions: radioligand [125]hGCRPα
Description: To define whether β–lactam derivative RGM8-51 could bind to CGRPR, CB2 and M3 receptors, in vitro binding assays were performed, using CHO cell lines transfected with these receptors. The degree of binding was determined by using specific radioligands for each receptor (Table 2, footnote).
These studies were subcontracted to Eurofins-CEREP or Eurofins-PANLABS. Briefly, agonists and antagonist assays were performed in cell cultures overexpressing the corresponding channel (CHO: TRPV1 and TRPA1; HEK293: TRPV3 and ASIC3). In vitro pharmacology, cellular channel functional assays: the compound was prepared in assay buffer to the final concentration, 10 μM. […] The agonist assay was conducted on fluorimeter instruments where the test compound, vehicle controls, and reference agonist were added to the assay plate after a fluorescence baseline was established. […] For the antagonist assay, the compound was pre-incubated for five minutes at room temperature, and then challenged with the EC80 concentration of the reference agonist after establishment of a fluorescence baseline. […] Binding assay results are expressed as a percent of control specific binding. […] Aqueous solubility (μM) was determined by comparing the peak area of the principal peak in a calibration standard (200 μM) containing organic solvent (methanol/water, 60/40, v/v) with the peak area of the corresponding peak in a buffer sample. […]

T1 sequence (Q16602 23-461): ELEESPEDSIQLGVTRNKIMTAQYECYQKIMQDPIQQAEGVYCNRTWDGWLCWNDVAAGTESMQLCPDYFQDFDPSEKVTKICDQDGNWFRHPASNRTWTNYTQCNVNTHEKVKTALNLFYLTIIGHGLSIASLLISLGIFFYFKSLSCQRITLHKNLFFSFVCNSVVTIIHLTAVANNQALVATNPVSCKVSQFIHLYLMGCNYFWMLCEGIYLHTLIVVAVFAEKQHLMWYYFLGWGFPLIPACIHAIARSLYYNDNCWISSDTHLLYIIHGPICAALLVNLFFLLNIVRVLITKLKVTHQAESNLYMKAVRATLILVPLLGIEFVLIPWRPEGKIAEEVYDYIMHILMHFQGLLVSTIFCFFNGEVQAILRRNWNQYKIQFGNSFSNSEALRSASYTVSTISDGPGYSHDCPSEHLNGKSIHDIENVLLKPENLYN
T1 sequence (O60894 27-148 partner): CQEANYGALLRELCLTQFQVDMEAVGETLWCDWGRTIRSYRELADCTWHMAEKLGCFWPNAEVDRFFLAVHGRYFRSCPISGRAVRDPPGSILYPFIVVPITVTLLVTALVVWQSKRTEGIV

C[C@@H]1C(=O)N(C[C@H](Cc2ccccc2)N(Cc2ccccc2)Cc2ccccc2)[C@]1(Cc1ccccc1)C(=O)OC(C)(C)C [RGM8-51, 4(S)-Benzyl-3S-methyl-4-(tert-butoxy)carbonyl-1-[(2′S-dibenzylamino-3′-phenyl)prop-1′-yl]-2-oxoazetidine]
Binding hCGRPR (%), inhibition of specific binding (10 μM): did not show significant affinity
inhibition at 10 µM (read-out: Binding hCGRPR (%), inhibition of specific binding): -1 ± 4.3%

Reference: paper PMC8910920 (International Journal of Molecular Sciences, 2022)
